Results published in patent publication US20110009628A1, “Compounds and Compositions for Modulating Lipid Levels and Methods of Preparing Same” (priority 2009, published 2011).
Counter-ions that a name gives are not always drawn.

Assays:
[1] = test system: LDLR mRNA expression in HepG2 cells; test: LDLR mRNA expression in HepG2 cells, Compounds 162 and 163, real-time RT-PCR (Example 13); type: cell-based, human; conditions: FIGS. 6A and 6B
Description: In FIG. 6A HepG2 cells were exposed to Compounds 162 and 163 at the indicated concentrations (x-axis) for 24 h and plotted against normalized LDLR mRNA levels (fold of control in absence of compound). In FIG. 6B, HepG2 cells were treated with 20 μM of each compound for the indicted times (x-axis) and plotted against normalized LDLR mRNA levels (fold of control at 24 h).
The time- and dose-dependent effects of the enantiomers of Compound 127 (Compounds 162 and 163) on LDLR mRNA expression were examined using quantitative real-time RT-PCR assays (FIGS. 6A and 6B). HepG2 cells were treated with Compound 162 and Compound 163 at indicated concentrations for various times. Total RNA was isolated and […] was used to generate cDNA in a reaction containing random primers and M-MLV at 37° C. for 1 h in a volume of 25 μL. Real-time PCR was performed on the cDNA using MCEP REALPLEX 2 SYSTEM (Eppendorf) and Universal MasterMix (Applied Biosystems). Human LDLR and GAPDH Pre-Developed TaqMan Assay Reagents (Applied Biosystems) were used to assess the levels of mRNA expressions in HepG2. The levels of LDLR mRNA were normalized to that of GAPDH. Each RNA samples was assayed in triplicate. The fold activity was calculated by dividing mRNA abundance in compound treated cells with that of control.

[2] = test system: LDLR protein expression in HepG2 cells; test: Western blot of LDLR protein in HepG2 cells, Compounds 162 and 163; type: cell-based, human; conditions: 20 μM, 16 or 24 hours, FIG. 7
Description: FIG. 7 is a Western blot analysis of LDLR and PCSK9 expression in HepG2 cells. HepG2 cells seeded in 12-well culture plates were cultured in 0.5% FBS MEM overnight. Compounds 162 and 163 at 20 μM were added to cells for the indicated times. Untreated and treated cells were harvested at the same indicated time points. Total cell lysates were isolated and 50 μg per sample was analyzed for LDLR and PCSK9 protein abundance by western blotting. The membrane was reprobed with anti-actin antibody to examine the equal loading of cell lysates.
Chicken anti-LDLR was purchased from Abcam. HepG2 cells cultured in 60-mm dishes were incubated overnight in medium containing 0.5% fetal bovine serum prior to the addition of compounds at 20 μM concentration. After 16 or 24 hours of treatment, total cell lysate was isolated and 50 μg of protein was separated on SDS-PAGE and transferred to nitrocellulose membrane for immunoblotting with anti-LDLR.

[3] = test system: liver LDLR mRNA; test: Liver LDLR mRNA in treated hamsters, quantitative real-time RT-PCR; type: in vivo, hamster; conditions: 100 mg/kg, 2 weeks, 10 animals per group, p<0.001
Description: (§1) To directly correlate the LDL-C and VLDL-C lowering effects of Compound 162 with its ability to upregulate hepatic LDLR expression and down-regulation of PCSK9, at the end of treatment, animals from vehicle and Compound 162 100 mg/kg treated groups were euthanized and levels of liver LDLR and PCSK9 mRNA were individually assessed by quantitative real-time RT-PCR using hamster specific probes. The results represent mean±SEM of 10 animals per group. The liver expression of LDLR mRNA was increased 1.7-fold over control by Compound 162 treatment (p<0.001). […] Thus, these in vivo data confirmed the in vitro effects of Compound 162 in upregulating LDLR mRNA while inhibiting PCSK9 mRNA expressions.

[4] = test system: liver PCSK9 mRNA; test: Liver PCSK9 mRNA in treated hamsters, quantitative real-time RT-PCR; type: in vivo, hamster; conditions: 100 mg/kg, 2 weeks, 10 animals per group
Description: as §1

**Q.** Which results are given for COc1cc2c(cc1OC)C1Cc3ccc(OC)c(OS(=O)(=O)c4cccc(F)c4)c3CN1CC2 (single isomer, unassigned) [Compound 162, 2,3,10-Trimethoxy-5,6,7,8,13,13a-hexahydroisoquinolino[2,1-b]isoquinolin-9-yl 3-fluorobenzenesulfonate phosphate Salt (Enantiomer having positive optical rotation)]?
**A.** LDLR mRNA expression [1]: upregulate LDLR mRNA expression; LDLR mRNA expression, comparison of the enantiomers [1]: more active than Compound 163; LDLR mRNA and protein expression [2]: significantly enhance; liver expression of LDLR mRNA [3]: 1.7 fold over control; liver mRNA levels of PCSK9 [4]: 57 % of vehicle control
